From patent publication US20230312471A1 (priority 2020, published 2023) come the findings set out here.

Common to all, as to test: biochemical
Assay [1] has as its target T1, PL^pro (Severe acute respiratory syndrome coronavirus 2, UniProt P0DTD1). Format: binding, SARS-CoV-2.
In assay [2] the target is T1, PL^pro. Format: biochemical, SARS-CoV-2.
For another assay, the target named is 3CL^pro (Severe acute respiratory syndrome coronavirus 2, UniProt P0DTD1). Format: binding, SARS-CoV-2.
Setting [3] is: read-out: IC50, inhibition of labelling of 3CL^pro by compound of formula (13).

Where two headings read alike, the source gives them in different places.

For the molecule `COc1cc(/C=C/C(=O)CC(=O)/C=C/c2ccc(O)c(OC)c2)ccc1O` [Compound M03, curcumin], the “Inhibition of PL^pro labelling (in words)” value on PL^pro [1] is “almost completely inhibited”. Further, on PL^pro [2], the “Inhibition of enzyme activity of PL^pro (in words)” value is “inhibited enzyme activity”.

For the molecule `O=C(/C=C/c1ccc(O)c2c1[C@H](C(=O)O[C@H](Cc1ccc(O)c(O)c1)C(=O)O)[C@@H](c1ccc(O)c(O)c1)O2)O[C@H](Cc1ccc(O)c(O)c1)C(=O)O` [Compound M26, salvianolic acid B], the IC50 at 3CL^pro (setting [3]) was 12 µM. In the case of `S=C=NCCc1ccccc1` [Compound X05, Phenethyl isothiocyanate], on 3CL^pro, half-maximal inhibition (IC50) required 43 µM and the “Inhibition of 3CL^pro labelling (in words)” value is listed as “incomplete inhibition”. Moreover, at PL^pro [1], 81 µM corresponded to half-maximal inhibition (IC50) and the “Inhibition of PL^pro labelling (in words)” value is reported as “incomplete inhibition”. On PL^pro [2], the half-inhibitory concentration (IC50) turned out to be 44 µM and the “Inhibition of enzyme activity of PL^pro (in words)” value is reported as “inhibited enzyme activity”.

With `O=C(/C=C/c1ccc(O)c2c1[C@H](C(=O)O)[C@@H](c1ccc(O)c(O)c1)O2)O[C@H](Cc1ccc(O)c(O)c1)C(=O)O` [lithospermic acid], half-maximal inhibition against 3CL^pro (IC50) required 32 µM. On 3CL^pro, `O=C(/C=C/c1ccc(O)c(O)c1)O[C@H](Cc1ccc(O)c(O)c1)C(=O)O` [rosmarinic acid] gave an IC50 of 10 µM. `O=C(/C=C/c1ccc(O)c(O)c1/C=C/c1ccc(O)c(O)c1)O[C@H](Cc1ccc(O)c(O)c1)C(=O)O` [salvianolic acid A]: the IC50 on 3CL^pro (setting [3]) was found to be 4.8 µM. Take `O=C(/C=C/c1ccc(O)c2oc(-c3ccc(O)c(O)c3)cc12)O[C@H](Cc1ccc(O)c(O)c1)C(=O)O` [salvianolic acid C]: the half-inhibitory concentration (IC50) at 3CL^pro (setting [3]) was found to be 91 µM.

As usually defined, the IC50 is the concentration that gives 50% inhibition.
